Target: T1, human DP2 receptor (Homo sapiens, UniProt Q9Y5Y4)
T1 construct: expressed in transfected cells
T1 sequence (Q9Y5Y4 1-395): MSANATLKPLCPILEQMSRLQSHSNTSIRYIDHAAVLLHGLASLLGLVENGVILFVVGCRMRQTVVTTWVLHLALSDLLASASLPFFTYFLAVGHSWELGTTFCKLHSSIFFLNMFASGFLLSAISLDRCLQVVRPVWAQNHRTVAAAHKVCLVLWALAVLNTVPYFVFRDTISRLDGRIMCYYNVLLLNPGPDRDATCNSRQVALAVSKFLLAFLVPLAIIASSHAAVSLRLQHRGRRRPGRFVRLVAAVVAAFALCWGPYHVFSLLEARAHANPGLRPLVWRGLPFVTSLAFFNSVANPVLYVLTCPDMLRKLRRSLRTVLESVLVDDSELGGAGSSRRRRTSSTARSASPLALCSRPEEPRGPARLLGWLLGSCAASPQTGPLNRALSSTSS
Experiment: DP2/CRTH2 radioligand binding assay ([3H]PGD2)
Details: [3H]PGD2 binding, membranes of HEK293 cells expressing human DP2; read-out: hDP2
Method: The ability of a compound to bind to the human DP2 receptor is assessed via a radioligand binding assay using [^3H]PGD2. HEK293 cells stably expressing recombinant human DP2 are resuspended in 10 mM Hepes, 7.4 containing 1 mM DTT, lysed and centrifuged at 75,000×g to pellet the membranes. The membranes are resuspended in 10 mM Hepes, 7.4 containing 1 mM DTT and 10% glycerol to approximately 5 mg protein/ml. Membranes (2-10 μg protein/well) are incubated in 96-well plates with 1 nM [^3H]PGD2 and test compound in Assay Buffer (50 mM Hepes, 10 mM MnCl2, 1 mM EDTA, plus or minus 0.2% human serum albumin, pH 7.4) for 60 minutes at room temperature. The reactions are terminated by rapid filtration through Whatman GF/C glass fibre filter plates. The filter plates were pre-soaked in 0.33% polyethylenimine for 30 minutes at room temperature then washed in Wash Buffer (50 mM Hepes, 0.5 M NaCl pH 7.4) prior to harvesting. After harvesting, the filter plates are washed 3 times with 1 ml cold Wash Buffer then dried. Scintillant is then added to the plates and the radioactivity retained on the filters is determined on a Packard TopCount (Perkin Elmer). Specific binding is determined as total radioactive binding minus non-specific binding in the presence of 10 μM PGD2. IC50s were determined using GraphPad prism analysis of drug titration curves.

IC50 [nM] | SMILES
< 300 | CCN(Cc1cc(C(F)(F)F)ccc1-c1cc(CC(=O)O)ccc1OC)C(=O)c1ccccc1 [Compound 1-80, {2′-[(Benzoyl-ethyl-amino)-methyl]-6-methoxy-4′-trifluoromethyl-biphenyl-3-yl}-acetic acid]
< 300 | CCN(Cc1cc(C(F)(F)F)ccc1-c1cc(Cl)cc(CC(=O)O)c1)C(=O)OCc1ccc(Cl)cc1 [Compound 1-188, (5-Chloro-2′-{[(4-chloro-benzyloxycarbonyl)-ethyl-amino]-methyl}-4′-trifluoromethyl-biphenyl-3-yl)-acetic acid]
< 300 | CCN(Cc1cc(C(F)(F)F)ccc1-c1cc(CC(=O)O)cc(C(F)(F)F)c1)C(=O)OCc1ccc(Cl)cc1 [Compound 1-189, (2′-{[(4-Chloro-benzyloxycarbonyl)-ethyl-amino]-methyl}-5,4′-bis-trifluoromethyl-biphenyl-3-yl)-acetic acid]
< 300 | CCN(Cc1cc(C(F)(F)F)ccc1-c1cc(Cl)cc(CC(=O)O)c1)C(=O)OCc1ccc(F)cc1 [Compound 1-190, (5-Chloro-2′-{[ethyl-(4-fluoro-benzyloxycarbonyl)-amino]-methyl}-4′-trifluoromethyl-biphenyl-3-yl)-acetic acid]
< 300 | CCN(Cc1cc(C(F)(F)F)ccc1-c1cc(CC(=O)O)cc(C(F)(F)F)c1)C(=O)OCc1ccc(F)cc1 [Compound 1-191, (2′-{[Ethyl-(4-fluoro-benzyloxycarbonyl)-amino]-methyl}-5,4′-bis-trifluoromethyl-biphenyl-3-yl)-acetic acid]
< 300 | CCN(Cc1cc(C(F)(F)F)ccc1-c1cc(Cl)cc(CC(=O)O)c1)C(=O)NCc1ccc(Cl)cc1 [Compound 1-192, {5-Chloro-2′-[3-(4-chloro-benzyl)-1-ethyl-ureidomethyl]-4′-trifluoromethyl-biphenyl-3-yl}-acetic acid]
< 300 | CCN(Cc1cc(C(F)(F)F)ccc1-c1cc(CC(=O)O)cc(C(F)(F)F)c1)C(=O)NCc1ccc(Cl)cc1 [Compound 1-193, {2′-[3-(4-Chloro-benzyl)-1-ethyl-ureidomethyl]-5,4′-bis-trifluoromethyl-biphenyl-3-yl}-acetic acid]
< 300 | CCN(Cc1ccc(OC)cc1-c1cc(CC(=O)O)ccc1OC)C(=O)OCc1ccc(F)cc1 [Compound 1-194, (2′-{[Ethyl-(4-fluoro-benzyloxycarbonyl)-amino]-methyl}-6,5′-dimethoxy-biphenyl-3-yl)-acetic acid]
< 300 | CCN(Cc1ccc(OC)cc1-c1cc(CC(=O)O)ccc1OC)C(=O)OCc1ccc(Cl)cc1 [Compound 1-195, (2′-{[(4-Chloro-benzyloxycarbonyl)-ethyl-amino]-methyl}-6,5′-dimethoxy-biphenyl-3-yl)-acetic acid]
< 300 | CCN(Cc1ccc(OC)cc1-c1cc(CC(=O)O)ccc1OC)C(=O)C1CC1 [Compound 1-196, {2′-[(Cyclopropanecarbonyl-ethyl-amino)-methyl]-6,5′-dimethoxy-biphenyl-3-yl}-acetic acid]
< 300 | CCN(Cc1ccc(OC)cc1-c1cc(CC(=O)O)ccc1OC)C(=O)NCc1ccccc1 [Compound 1-197, [2′-(3-Benzyl-1-ethyl-ureidomethyl)-6,5′-dimethoxy-biphenyl-3-yl]-acetic acid]
< 300 | CCN(Cc1cc(C(F)(F)F)ccc1-c1cc(CC(=O)O)ccc1OC)C(=O)NCc1cccnc1 [Compound 1-198]
< 300 | CCN(Cc1cc(C(F)(F)F)ccc1-c1cc(CC(=O)O)ccc1OC)C(=O)NCc1ccncc1 [Compound 1-199, [2′-(1-Ethyl-3-pyridin-4-ylmethyl-ureidomethyl)-6-methoxy-4′-trifluoromethyl-biphenyl-3-yl]-acetic acid]
< 300 | CCN(Cc1cc(C(F)(F)F)ccc1-c1cc(CC(=O)O)ccc1OC)C(=O)NCc1ccc(Cl)nc1 [Compound 1-200, {2′-[3-(6-Chloro-pyridin-3-ylmethyl)-1-ethyl-ureidomethyl]-6-methoxy-4′-trifluoromethyl-biphenyl-3-yl}-acetic acid]
< 300 | CCN(Cc1cc(C(F)(F)F)ccc1-c1cc(Cl)cc(CC(=O)O)c1)C(=O)NC [Compound 1-201, [5-Chloro-2′-(1-ethyl-3-methyl-ureidomethyl)-4′-trifluoromethyl-biphenyl-3-yl]-acetic acid]
< 300 | CCN(Cc1cc(C(F)(F)F)ccc1-c1cc(CC(=O)O)cc(C(F)(F)F)c1)C(=O)NC [Compound 1-202, [2′-(1-Ethyl-3-methyl-ureidomethyl)-5,4′-bis-trifluoromethyl-biphenyl-3-yl]-acetic acid]
< 300 | CCN(Cc1cc(C(F)(F)F)ccc1-c1cc(Cl)cc(CC(=O)O)c1)C(=O)c1ccccc1 [Compound 1-203, {2′-[(Benzoyl-ethyl-amino)-methyl]-5-chloro-4′-trifluoromethyl-biphenyl-3-yl}-acetic acid]
< 300 | CCN(Cc1cc(C(F)(F)F)ccc1-c1cc(CC(=O)O)cc(C(F)(F)F)c1)C(=O)c1ccccc1 [Compound 1-204, {2′-[(Benzoyl-ethyl-amino)-methyl]-5,4′-bis-trifluoromethyl-biphenyl-3-yl}-acetic acid]
< 300 | CCN(Cc1cc(C(F)(F)F)ccc1-c1cc(CC(=O)O)ccc1OC)C(=O)Cc1ccccc1 [Compound 1-207, {2′-[(Ethyl-phenylacetyl-amino)-methyl]-6-methoxy-4′-trifluoromethyl-biphenyl-3-yl}-acetic acid]
< 300 | CCN(Cc1cc(C(F)(F)F)ccc1-c1cc(CC(=O)O)ccc1OC)C(=O)CCc1ccccc1 [Compound 1-208, (2′-{[Ethyl-(3-phenyl-propionyl)-amino]-methyl}-6-methoxy-4′-trifluoromethyl-biphenyl-3-yl)-acetic acid]
< 300 | CCN(Cc1cc(C(F)(F)F)ccc1-c1cc(CC(=O)O)ccc1OC)C(=O)C1(O)CC1 [Compound 1-209, (2′-{[Ethyl-(1-hydroxy-cyclopropanecarbonyl)-amino]-methyl}-6-methoxy-4′-trifluoromethyl-biphenyl-3-yl)-acetic acid]
< 300 | CCN(Cc1cc(C(F)(F)F)ccc1-c1cc(CC(=O)O)ccc1OC)C(N)=O [Compound 1-210, {2′-[(1-Ethyl-ureido)-methyl]-6-methoxy-4′-trifluoromethyl-biphenyl-3-yl}-acetic acid]
< 300 | CCN(Cc1cc(C(F)(F)F)ccc1-c1cc(Cl)cc(C(C)C(=O)O)c1)C(C)=O (stereo not drawn) [Compound 1-211, 2-{2′-[(Acetyl-ethyl-amino)-methyl]-5-chloro-4′-trifluoromethyl-biphenyl-3-yl}-propionic acid]
< 300 | CCN(Cc1cc(C(F)(F)F)ccc1-c1cc(Cl)cc(C(C)C(=O)O)c1)C(=O)C1CC1 (stereo not drawn) [Compound 1-212, 2-{5-Chloro-2′-[(cyclopropanecarbonyl-ethyl-amino)-methyl]-4′-trifluoromethyl-biphenyl-3-yl}-propionic acid]
< 300 | CCN(Cc1cc(C(F)(F)F)ccc1-c1cc(C(C)C(=O)O)cc(C(F)(F)F)c1)C(C)=O (stereo not drawn) [Compound 1-213, 2-{2′-[(Acetyl-ethyl-amino)-methyl]-5,4′-bis-trifluoromethyl-biphenyl-3-yl}-propionic acid]
< 300 | CCN(Cc1cc(C(F)(F)F)ccc1-c1cc(C(C)C(=O)O)cc(C(F)(F)F)c1)C(=O)C1CC1 (stereo not drawn) [Compound 1-214, 2-{2′-[(Cyclopropanecarbonyl-ethyl-amino)-methyl]-5,4′-bis-trifluoromethyl-biphenyl-3-yl}-propionic acid]
< 300 | CCN(Cc1cc(C(F)(F)F)ccc1-c1cc(C(C)C(=O)O)ccc1OC)C(=O)C1CC1 (stereo not drawn) [Compound 1-217, 2-{2′-[(Cyclopropanecarbonyl-ethyl-amino)-methyl]-6-methoxy-4′-trifluoromethyl-biphenyl-3-yl}-propionic acid]
< 300 | CCN(Cc1ccc(OC)cc1-c1cc(Cl)cc(CC(=O)O)c1)C(=O)C1CC1 [Compound 1-218, {5-Chloro-2′-[(cyclopropanecarbonyl-ethyl-amino)-methyl]-5′-methoxy-biphenyl-3-yl}-acetic acid]
< 300 | CCN(Cc1ccc(OC)cc1-c1cc(Cl)cc(CC(=O)O)c1)C(=O)NCc1ccccc1 [Compound 1-219, [2′-(3-Benzyl-1-ethyl-ureidomethyl)-5-chloro-5′-methoxy-biphenyl-3-yl]-acetic acid]
< 300 | CCN(Cc1ccc(OC)cc1-c1cc(Cl)cc(CC(=O)O)c1)C(=O)COc1ccc(Cl)cc1 [Compound 1-221, [5-Chloro-2′-({[2-(4-chloro-phenoxy)-acetyl]-ethyl-amino}-methyl)-5′-methoxy-biphenyl-3-yl]-acetic acid]

From patent US8067445B2, “N,N-disubstituted aminoalkylbiphenyl antagonists of prostaglandin D2 receptors” (Panmira Pharmaceuticals, LLC, priority 2008, dated 2011)
